From patent publication US7635716B2, “Substituted cyclopentanes or cyclopentanones as therapeutic agents” (Allergan, Inc., priority 2005, dated 2009)
Like-named read-outs stand apart in the source and are kept apart here.

Key:
hEP2 = hEP2 (Homo sapiens, UniProt P43116); assay: hEP2 cAMP functional assay; type: cell-based; conditions: Table 1, second part
hDP/Gqs5 = target: T1, hDP/Gqs5 (Homo sapiens, UniProt Q13258); assay: FLIPR calcium signal, HEK-293(EBNA) cells; type: cell-based
T1 construct: expressed in transfected cells; host or cells: HEK-293(EBNA) cells
T1 sequence (Q13258 1-359): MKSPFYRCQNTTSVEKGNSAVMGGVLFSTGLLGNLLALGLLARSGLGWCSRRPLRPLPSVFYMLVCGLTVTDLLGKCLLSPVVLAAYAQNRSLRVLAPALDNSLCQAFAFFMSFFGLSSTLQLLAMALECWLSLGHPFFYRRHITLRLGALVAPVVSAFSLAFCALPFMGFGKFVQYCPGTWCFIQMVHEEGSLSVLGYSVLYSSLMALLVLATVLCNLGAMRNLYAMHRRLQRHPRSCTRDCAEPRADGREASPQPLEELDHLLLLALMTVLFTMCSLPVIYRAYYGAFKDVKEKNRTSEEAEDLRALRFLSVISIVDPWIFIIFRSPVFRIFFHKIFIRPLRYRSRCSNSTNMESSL

normotensive dogs [1] = assay: Ocular surface hyperemia (OSH) in normotensive dogs; type: in vivo, dog; parameters: maximum OSH score: scale not given here; conditions: dosing once daily for 5 days
Procedure: (§1) (Z)-7-[(1R,2S,3R,5R)-5-Chloro-2-(3,5-dichloro-phenoxymethyl)-3-hydroxy-cyclopentyl]-hept-5-enoic acid (15b) was tested at multiple concentrations in normotensive dogs, dosing once daily for 5 days. At 0.05%, the maximum IOP decrease from baseline was 4.3 mmHg (30%) at 6 h; the maximum OSH score was 0.6 at 6 h. […] This compound was also tested in laser-induced hypertensive monkeys, using one single day dose. At 0.1%, the maximum IOP decrease from baseline was 6 mmHg (19%) at 6 h.
(§2) (Z)-7-[(1R,2S,3R,5R)-5-Chloro-2-(3,5-dichloro-phenoxymethyl)-3-hydroxy-cyclopentyl]-hept-5-enoic acid isopropyl ester (42b) was tested in normotensive dogs at 0.05%, dosing once daily for 5 days. The maximum intraocular pressure (IOP) decrease from baseline was 3 mmHg (19%) at 6 h; the maximum ocular surface hyperemia (OSH) score was 0.6 at 74 h. This compound was also tested in laser-induced hypertensive monkeys, using one single day dose. At 0.01%, the maximum IOP decrease from baseline was 6 mmHg (16%) at 6 h.

normotensive dogs [2] = assay: Intraocular pressure (IOP) in normotensive dogs; type: in vivo, dog; conditions: Canis lupus familiaris, topical, 120 h, dosing once daily for 5 days, read-out: maximum IOP decrease from baseline (percent)
Procedure: as §1, §2

[3] = tested on: laser-induced hypertensive monkeys; assay: Intraocular pressure (IOP) in laser-induced hypertensive monkeys; type: in vivo, monkey; conditions: Primates, topical, 0.1%, one single day dose, read-out: maximum IOP decrease from baseline (percent)
Procedure: as §1, §2

[4] = Table 1, first part, triplicate, read-out: functional data (EC50) hDP
[5] = Table 1, second part, quantity not given, values match functional data (EC50) of first part, read-out: Other Receptors hDP

Sequence of hEP2 (P43116 whole entry): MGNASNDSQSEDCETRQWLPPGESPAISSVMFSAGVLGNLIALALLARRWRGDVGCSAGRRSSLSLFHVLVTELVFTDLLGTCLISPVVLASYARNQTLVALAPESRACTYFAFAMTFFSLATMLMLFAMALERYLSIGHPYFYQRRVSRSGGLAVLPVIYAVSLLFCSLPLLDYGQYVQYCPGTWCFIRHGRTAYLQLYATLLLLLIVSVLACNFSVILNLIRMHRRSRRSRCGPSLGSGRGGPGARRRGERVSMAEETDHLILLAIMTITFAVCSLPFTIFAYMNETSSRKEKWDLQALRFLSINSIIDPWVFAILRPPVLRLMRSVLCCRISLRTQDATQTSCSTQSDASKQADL

| SMILES | EC50 (hEP2) | EC50 (hDP/Gqs5; [4]) | EC50 (hDP/Gqs5; [5]) | maximum OSH score (normotensive dogs [1]; 0.05%) | time of maximum OSH score (normotensive dogs [1]; 0.05%) | maximum OSH score (normotensive dogs [1]; 0.1%) | time of maximum OSH score (normotensive dogs [1]; 0.1%) | inhibition in vivo at 0.05 % (normotensive dogs [2]; 0.05%) | inhibition in vivo at 0.1 % (normotensive dogs [2]; 0.1%) | inhibition in vivo at 0.1 % [3] |
| --- | --- | --- | --- | --- | --- | --- | --- | --- | --- | --- |
| O=C(O)CCCCCC[C@H]1C(=O)CC[C@@H]1COc1ccccc1 [Example 6, 7-((1R,5S)-2-Oxo-5-phenoxymethyl-cyclopentyl)-heptanoic acid] | 0.234 µM | > 10 µM | > 10 µM | – | – | – | – | – | – | – |
| O=C(O)CCC/C=C\C[C@@H]1[C@@H](COc2cc(Cl)cc(Cl)c2)[C@H](O)C[C@H]1Cl [Example 12, (Z)-7-[(1R,2S,3R,5R)-5-Chloro-2-(3,5-dichloro-phenoxymethyl)-3-hydroxy-cyclopentyl]-hept-5-enoic acid] | 0.0009 µM | > 10 µM | > 10 µM | 0.6 | 6 h | 1.3 | 6 h | 30% | 34% | 19% |
| O=C(O)CCCCCC[C@@H]1[C@@H](COc2cc(Cl)cc(Cl)c2)[C@H](O)C[C@H]1Cl [Example 14, 7-[(1R,2S,3R,5R)-5-Chloro-2-(3,5-dichloro-phenoxymethyl)-3-hydroxy-cyclopentyl]-heptanoic acid] | 0.014 µM | > 10 µM | > 10 µM | – | – | – | – | – | – | – |

Continued, in another order:

| EC50 (hEP2) | EC50 (hDP/Gqs5; [4]) | EC50 (hDP/Gqs5; [5]) | maximum OSH score (normotensive dogs [1]; 0.05%) | time of maximum OSH score (normotensive dogs [1]; 0.05%) | maximum OSH score (normotensive dogs [1]; 0.1%) | time of maximum OSH score (normotensive dogs [1]; 0.1%) | SMILES | inhibition in vivo at 0.05 % (normotensive dogs [2]; 0.05%) | inhibition in vivo at 0.1 % (normotensive dogs [2]; 0.1%) | inhibition in vivo at 0.1 % [3] |
| --- | --- | --- | --- | --- | --- | --- | --- | --- | --- | --- |
| – | > 10 µM | > 10 µM | – | – | – | – | O=C(O)CCC/C=C\C[C@@H]1[C@@H](COc2ccccc2)[C@H](O)C[C@H]1Cl [Example 8, (Z)-7-((1R,2S,3R,5R)-5-Chloro-3-hydroxy-2-phenoxymethyl-cyclopentyl)-hept-5-enoic acid] | – | – | – |
| 0.047 µM | > 10 µM | > 10 µM | – | – | – | – | O=C(O)CCCCCC[C@@H]1[C@@H](COc2ccccc2)[C@H](O)C[C@H]1Cl [Example 10, 7-((1R,2S,3R,5R)-5-Chloro-3-hydroxy-2-phenoxymethyl-cyclopentyl)-heptanoic acid] | – | – | – |
